The source of these data is patent US10787447B2, “Pharmaceutical compounds” (Heptares Therapeutics Limited, priority 2018, dated 2020).

For experiment [1], the target named is T1, human muscarinic M1 receptor (Homo sapiens, UniProt P11229).
T1 sequence (P11229 1-460): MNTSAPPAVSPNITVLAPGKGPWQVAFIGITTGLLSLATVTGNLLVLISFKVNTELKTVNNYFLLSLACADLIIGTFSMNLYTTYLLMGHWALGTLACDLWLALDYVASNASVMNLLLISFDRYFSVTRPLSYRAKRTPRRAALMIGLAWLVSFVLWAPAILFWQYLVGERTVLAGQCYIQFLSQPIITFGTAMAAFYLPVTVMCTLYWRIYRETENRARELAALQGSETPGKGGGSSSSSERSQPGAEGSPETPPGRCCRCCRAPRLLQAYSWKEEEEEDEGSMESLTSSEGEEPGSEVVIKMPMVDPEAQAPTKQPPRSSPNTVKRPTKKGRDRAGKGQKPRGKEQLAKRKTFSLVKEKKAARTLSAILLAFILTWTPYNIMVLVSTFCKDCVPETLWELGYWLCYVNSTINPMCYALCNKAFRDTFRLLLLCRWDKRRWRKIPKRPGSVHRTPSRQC
In words: Alphascreen Surefire phospho-ERK1/2 functional assay, M1. It counts as cell-based. The note with it: for EC50: phospho-ERK1/2; for Emax: CHO, read-out: % Emax cf. ACh, M1, CHO cells stably expressing human M1; for Emax / % Emax cf. ACh, M1: Emax relative to ACh. The protocol: (§1) Functional assays were performed using the Alphascreen Surefire phospho-ERK1/2 assay (Crouch & Osmond, Comb. Chem. High Throughput Screen, 2008). ERK1/2 phosphorylation is a downstream consequence of both Gq/11 and Gi/o protein coupled receptor activation, making it highly suitable for the assessment of M1, M3 (Gq/11 coupled) and M2, M4 receptors (Gi/o coupled), rather than using different assay formats for different receptor subtypes. CHO cells stably expressing the human muscarinic M1, M2, M3 or M4 receptor were plated (25K/well) onto 96-well tissue culture plates in MEM-alpha+10% dialysed FBS. Once adhered, cells were serum-starved overnight. Agonist stimulation was performed by the addition of 5 μL agonist to the cells for 5 min (37° C.). Media was removed and 50 μL of lysis buffer added. After 15 min, a 4 μL sample was transferred to 384-well plate and 7 μL of detection mixture added.
For the vast majority of examples at least two diastereomers exist and these have been separated, unless otherwise stated, using the techniques of reversed phase HPLC, chiral HPLC or chiral SFC. Isomer assignment (Isomer 1, Isomer 2, etc.) is based on the retention time of the compound using the separation technique that was performed in the final purification step. By implication, this could be reversed phase HPLC, chiral HPLC or chiral SFC retention time, and this will vary from compound to compound.
A general note: Bead proximity is the source of the signal in Alpha formats.

Experiment [2] has as its target T2, human muscarinic M4 receptor (Homo sapiens, UniProt P08173).
T2 sequence (P08173 1-479): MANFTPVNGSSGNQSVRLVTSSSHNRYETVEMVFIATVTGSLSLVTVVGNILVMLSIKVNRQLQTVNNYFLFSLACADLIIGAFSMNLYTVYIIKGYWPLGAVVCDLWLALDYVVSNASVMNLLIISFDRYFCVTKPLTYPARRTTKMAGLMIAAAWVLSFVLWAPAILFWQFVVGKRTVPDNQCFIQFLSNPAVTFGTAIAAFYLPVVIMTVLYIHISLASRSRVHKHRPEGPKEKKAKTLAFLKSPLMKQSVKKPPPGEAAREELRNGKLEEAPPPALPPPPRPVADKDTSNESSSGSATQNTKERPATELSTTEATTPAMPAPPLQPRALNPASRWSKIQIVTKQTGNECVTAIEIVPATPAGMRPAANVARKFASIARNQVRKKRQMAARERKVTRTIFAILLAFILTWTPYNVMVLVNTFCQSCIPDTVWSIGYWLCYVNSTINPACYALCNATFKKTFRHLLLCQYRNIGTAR
Description: Alphascreen Surefire phospho-ERK1/2 functional assay, M4. The settings on record: for EC50: phospho-ERK1/2; for Emax: CHO, read-out: % Emax cf. ACh, M4, CHO cells stably expressing human M4; for Emax / % Emax cf. ACh, M4: Emax relative to ACh. The class given is cell-based. The method, then:
as §1, with “ERK1/2” for “Functional assays were performed using the Alphascreen Surefire phospho-ERK1/2 assay (Crouch & Osmond, Comb. Chem. High Throughput Screen, 2008). ERK1/2”
Isomer assignment (Isomer 1, Isomer 2, etc.) is based on the retention time of the compound using the separation technique that was performed in the final purification step. By implication, this could be reversed phase HPLC, chiral HPLC or chiral SFC retention time, and this will vary from compound to compound.

Setting [3] is: CHO cells stably expressing human M1, read-out: pEC50 M1 (converted).
The mark [4] stands for this setting: CHO cells stably expressing human M4, read-out: pEC50 M4 (converted).
The mark [5] stands for this setting: CHO cells stably expressing human M1.
Setting [6] is: CHO cells stably expressing human M4.
[7] abbreviates: pEC50 M1, CHO cells stably expressing human M1.
Setting [8] is: pEC50 M4, CHO cells stably expressing human M4.

Read-outs that look alike come from different tables or passages of the source.

Usually Emax stands for the maximal effect, on the per cent scale that the assay sets. `CCOC(=O)N1C2COCC1CC(N1CCC(c3cccc(OC)n3)CC1)C2` (single isomer, unassigned) [Example 2-1 Isomer 1, Ethyl 7-[4-(6-methoxypyridin-2-yl)piperidin-1-yl]-3-oxa-9-azabicyclo[3.3.1]nonane-9-carboxylate]: the EC50 in experiment [1] (setting [3]) is 251 nM; in experiment [2] (setting [4]), over 20000 nM. Also, the Emax in experiment [1] amounted to 44%; in experiment [2], 17%.

As to `CCOC(=O)N1C2COCC1CC(N1CCC(c3cccc(OC)n3)CC1)C2` (single isomer, unassigned) [Example 2-1 Isomer 2, Ethyl 7-[4-(6-methoxypyridin-2-yl)piperidin-1-yl]-3-oxa-9-azabicyclo[3.3.1]nonane-9-carboxylate], in experiment [1] (setting [5]), the “% Emax cf. ACh, M1” value came out at 40%. In experiment [1] (setting [3]), the EC50 is 158 nM. Further, in experiment [2] (setting [6]), the “% Emax cf. ACh, M4” value was determined as 20%.

Regarding `CCOC(=O)N1C2COCC1CC(N1CCC(C#N)(c3ccccn3)CC1)C2` (single isomer, unassigned) [Example 3-1 Isomer 1, Ethyl 7-[4-cyano-4-(pyridin-2-yl)piperidin-1-yl]-3-oxa-9-azabicyclo[3.3.1]nonane-9-carboxylate], the values for the EC50 in experiment [1] (setting [3]) and in experiment [2] (setting [4]) were 1380 nM and 129 nM, respectively. The Emax amounted to 97% in experiment [1] and 94% in experiment [2].

`CCOC(=O)N1C2COCC1CC(N1CCC(C#N)(c3ccccn3)CC1)C2` (single isomer, unassigned) [Example 3-1 Isomer 2, Ethyl 7-[4-cyano-4-(pyridin-2-yl)piperidin-1-yl]-3-oxa-9-azabicyclo[3.3.1]nonane-9-carboxylate]: in experiment [1] (setting [5]), the “% Emax cf. ACh, M1” value is recorded as 79%. For the same compound, the “% Emax cf. ACh, M4” value in experiment [2] (setting [6]) came out at 78%. Also, in experiment [2] (setting [4]), the EC50 was 309 nM.

On to `CCOC(=O)N1C2COCC1CC(N1CCC3(CC1)CNC(=O)C3)C2` (single isomer, unassigned) [Example 5-2 Isomer 1, Ethyl 7-(3-oxo-2,8-diazaspiro[4.5]dec-8-yl)-3-oxa-9-azabicyclo[3.3.1]nonane-9-carboxylate], for which the “% Emax cf. ACh, M1” value in experiment [1] (CHO cells stably expressing human M1, listed as 5-2 Isomer 1) came to 82%. In addition, the EC50 is 316 nM in experiment [1] (setting [7]) and 302 nM in experiment [2] (setting [8]). Moreover, the Emax in experiment [2] was found to be 36%.

For `CCOC(=O)N1C2COCC1CC(N1CCC3(CC1)CNC(=O)O3)C2` (single isomer, unassigned) [Example 5-3 Isomer 1, Ethyl 7-(2-oxo-1-oxa-3,8-diazaspiro[4.5]dec-8-yl)-3-oxa-9-azabicyclo[3.3.1]nonane-9-carboxylate], the EC50 was 1450 nM in experiment [1] (setting [3]) and 832 nM in experiment [2] (setting [4]). Besides, the Emax worked out at 75% in experiment [1] and 33% in experiment [2].

With `CCOC(=O)N1C2COCC1CC(N1CCC3(CC1)OC(=O)NC3CC)C2` (single isomer, unassigned) [Example 5-4 Isomer 1b, Ethyl 7-(4-ethyl-2-oxo-1-oxa-3,8-diazaspiro[4.5]dec-8-yl)-3-oxa-9-azabicyclo[3.3.1]nonane-9-carboxylate], the “% Emax cf. ACh, M1” value in experiment [1] (CHO cells stably expressing human M1, listed as 5-4 Isomer 1b) amounted to 9%. Also, the EC50 in experiment [1] (setting [7]) is over 20000 nM; in experiment [2] (setting [8]), 316 nM. For the same compound, the “% Emax cf. ACh, M4” value in experiment [2] (CHO cells stably expressing human M4, listed as 5-4 Isomer 1b) is reported as 30%.

On to `CCOC(=O)N1C2COCC1CC(N1CCC3(CC1)OC(=O)NC3CC)C2` (single isomer, unassigned) [Example 5-4 Isomer 2a, Ethyl 7-(4-ethyl-2-oxo-1-oxa-3,8-diazaspiro[4.5]dec-8-yl)-3-oxa-9-azabicyclo[3.3.1]nonane-9-carboxylate], for which, in experiment [1] (CHO cells stably expressing human M1, listed as 5-4 Isomer 2a), the “% Emax cf. ACh, M1” value is listed as 75%. Also, the EC50 in experiment [1] (setting [7]) is 977 nM; in experiment [2] (setting [8]), 200 nM. For the same compound, the “% Emax cf. ACh, M4” value in experiment [2] (CHO cells stably expressing human M4, listed as 5-4 Isomer 2a) stood at 61%.

For `CCOC(=O)N1C2COCC1CC(N1CCC(N(CC(C)(C)C)C(C)=O)CC1)C2` (single isomer, unassigned) [Example 6-2 Isomer 1, Ethyl 7-{4-[acetyl(2,2-dimethylpropyl)amino]piperidin-1-yl}-3-oxa-9-azabicyclo[3.3.1]nonane-9-carboxylate], the EC50 was 617 nM in experiment [1] (setting [3]) and 1050 nM in experiment [2] (setting [4]). In addition, the results for the Emax in experiment [1] and in experiment [2] were 71% and 45%, respectively.

As for `CCOC(=O)N1C2COCC1CC(N1CCC(C(=O)NC3(C)CCC3)CC1)C2` (single isomer, unassigned) [Example 7-1 Isomer 1, Ethyl 7-{4-[(1-methylcyclobutyl)carbamoyl]piperidin-1-yl}-3-oxa-9-azabicyclo[3.3.1]nonane-9-carboxylate], the “% Emax cf. ACh, M1” value in experiment [1] (CHO cells stably expressing human M1, listed as 7-1 Isomer 1) is 91%. Further, the values for the EC50 in experiment [1] (setting [3]) and in experiment [2] (setting [4]) were 380 nM and 324 nM, respectively. Moreover, in experiment [2] (CHO cells stably expressing human M4, listed as 7-1 Isomer 1), the “% Emax cf. ACh, M4” value turned out to be 76%.

For `CCOC(=O)N1C2COCC1CC(N1CCC(C(=O)NC3(C)CCC3)CC1)C2` (single isomer, unassigned) [Example 7-1 Isomer 2, Ethyl 7-{4-[(1-methylcyclobutyl)carbamoyl]piperidin-1-yl}-3-oxa-9-azabicyclo[3.3.1]nonane-9-carboxylate], the “% Emax cf. ACh, M1” value in experiment [1] (CHO cells stably expressing human M1, listed as 7-1 Isomer 2) amounted to 62%. For the same compound, the figures for the EC50 in experiment [1] (setting [3]) and in experiment [2] (setting [4]) were 1740 nM and over 20000 nM, respectively. For the same compound, in experiment [2] (CHO cells stably expressing human M4, listed as 7-1 Isomer 2), the “% Emax cf. ACh, M4” value was determined as 54%.

Consider `CCOC(=O)N1C2COCC1CC(N1CCC(C(=O)NCC(C)C)CC1)C2` (single isomer, unassigned) [Example 7-2 Isomer 1, Ethyl 7-{4-[(2-methylpropyl)carbamoyl]piperidin-1-yl}-3-oxa-9-azabicyclo[3.3.1]nonane-9-carboxylate], for which the maximal response (Emax) in experiment [1] was found to be 96%; in experiment [2] it was 72%. The EC50 was 79.4 nM in experiment [1] (setting [7]) and 457 nM in experiment [2] (setting [8]).

For the compound `CCOC(=O)N1C2COCC1CC(N1CCC(C(=O)N3CCCCCC3)CC1)C2` (single isomer, unassigned) [Example 7-4 Isomer 1, Ethyl 7-[4-(azepan-1-ylcarbonyl)piperidin-1-yl]-3-oxa-9-azabicyclo[3.3.1]nonane-9-carboxylate], the EC50 in experiment [1] (setting [3]) was 550 nM; in experiment [2] (setting [4]), over 20000 nM. Moreover, the Emax turned out to be 85% in experiment [1] and 65% in experiment [2].
